# Experimental data taken from patent US20260102383A1, “LPAR1 Inhibitors” (AbbVie Inc., priority 2024, published 2026).
# Biological target: T1, human LPAR1 (Homo sapiens, UniProt Q92633)
# T1 construct: host or cells: TangoEDG2-bla U2OS cells
# Test: Arrestin assay (Arrestin Reporter EDG2-bla U2OS), inhibition of LPA-stimulated signal
# Assay type: cell-based
# Settings: TangoEDG2-bla U2OS cells expressing human LPAR1; 0.25 μM LPA; read-out: Arrestin Reporter EDG2-bla U2OS Human Merged IC50
# Description: The inhibitory activity of compounds 15, 62, 77, 84 and 169 against LPAR1 was measured using an Arrestin assay in U2OS cells expressing human LPAR1.
# FreeStyle media was warmed in a 37° C. water bath. Cryo-preserved vial(s) of TangoEDG2-bla U2OS cells were rapidly thawed in a 37° C. water bath. The thawed cells were added to FreeStyle media and cells were pelleted at 300×g for 5 minutes. The supernatant was aspirated, and cells were resuspended in FreeStyle media. Cell density was adjusted to 0.25×10^6 cells/mL. Cells (1×10^4 in 40 μL) were added to each well of Greiner 384 well black cell plate(s). Cell plate(s) were placed in a humidified 37° C./5% CO2 incubator for 18-20 hours. Dilutions of test compound were prepared at 6× final concentration; 12-point, 3-fold dilutions using HH Buffer (1×HBSS plus 20 mM HEPES). The 6× test compound was then added to the cell plate(s) at 10 μL/well. The final concentration ranged from 10 μM to 0.00006 μM. Cell plate(s) were incubated in a humidified 37° C./5% CO2 incubator for 1 hour. During the incubation, 6×LPA was prepared at 1.5 μM in 0.1% BSA HH Buffer. After the 1-hour incubation of test compound with cells, the LPA was added to the cell plate(s) at 10 μL/well (final LPA concentration of 0.25 μM). Cell plate(s) were returned to a humidified 37° C./5% CO2 incubator for 3 hours. The Development solution was made up per the LiveBLAzerFRET B/G kit protocol. The Development solution was added to the cell plate(s) at 10 μL/well. Cell plates were incubated in the dark at room temperature for 2 hours. Plate(s) were read on an Envision Plate Reader (Perkin Elmer) to read fluorescence; excitation at 409 nm with emission at 460 nm and 530 nm. Raw Data for analysis is the ratio of emission at 460 nm divided by emission 530 nm. The formula used to determine % Inhibition is as follows (1−(Raw Data−Low Average)/(High Average−Low Average))*100. Percent Inhibition was plotted to determine IC50 value with GraphPad Prism 9.5.0 software using Variable slope 4-parameter curve fit analysis.
# Additional compounds of the present disclosure were synthesized in a manner similar to the compounds described above and understood by a person of ordinary skill in the art. The inhibitory activity of the compounds of the present disclosure against LPAR1 was measured using the above-referenced Arrestin Assay protocol.
# T1 sequence (Q92633 whole entry): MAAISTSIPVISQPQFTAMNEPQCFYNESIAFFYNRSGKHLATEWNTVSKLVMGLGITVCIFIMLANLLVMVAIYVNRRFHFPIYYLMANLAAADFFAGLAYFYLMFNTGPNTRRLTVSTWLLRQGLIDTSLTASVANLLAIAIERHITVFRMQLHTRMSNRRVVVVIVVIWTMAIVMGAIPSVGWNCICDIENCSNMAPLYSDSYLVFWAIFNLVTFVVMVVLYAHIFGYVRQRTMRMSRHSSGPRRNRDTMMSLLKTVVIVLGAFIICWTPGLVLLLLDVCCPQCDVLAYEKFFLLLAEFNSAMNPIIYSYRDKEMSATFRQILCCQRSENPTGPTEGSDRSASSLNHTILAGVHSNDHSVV
row,IC50 [nM],Compound
1,48.1,"CC(C)c1ccnn1C1(C(=O)Nc2ccc(Cl)cc2OC(F)F)CCN([C@H]2C[C@@]3(C[C@H]3C(=O)O)C2)CC1 (relative stereo) [Compound 106, rel-(1R,3r,5S)-5-[4-1[4-chloro-2-(difluoromethoxy)phenyl]carbamoyl]-4-(5-isopropylpyrazol-1-yl)-1-piperidyl]spiro[2.3]hexane-2-carboxylic acid]"
2,33.9,"CC(C)c1ccnn1C1(C(=O)Nc2ccc(Cl)cc2OC(F)F)CCN(C[C@@H](C(=O)O)C2CCOCC2)CC1 (single isomer, unassigned) [Compound 14, (2.5)-3-[4-[[4-chloro-2-(difluoromethoxy)phenyl]carbamoyl]-4-(5-isopropylpyrazol-1-yl)-1-piperidyl]-2-tetrahydropyran-4-yl-propanoic acid]"
3,3.11,"COc1cccc([C@H](CN2CCC(C(=O)Nc3ccc(Cl)cc3OC(F)F)(n3nccc3C(C)C)CC2)C(=O)O)c1 (single isomer, unassigned) [Compound 32]"
4,18.8,"CC(C)c1ccnn1C1(C(=O)Nc2ccc(Cl)cc2OC(F)F)CCN(C[C@@]2(C(=O)O)CCCCO2)CC1 (single isomer, unassigned) [Compound 38]"
5,13,"CC(C)c1ccnn1C1(C(=O)Nc2ccc(Cl)cc2OC(F)F)CCN(C[C@]2(C(=O)O)CCCCO2)CC1 (single isomer, unassigned) [Compound 39, (2.5)-2-[[4-[[4-chloro-2-(difluoromethoxy)phenyl]carbamoyl]-4-(5-isopropylpyrazol-1-yl)-1-piperidyl]methyl]tetrahydropyran-2-carboxylic acid]"
6,34.5,"CC(C)c1ccnn1C1(C(=O)Nc2ccc(Cl)cc2OC(F)F)CCN([C@H]2C[C@@H](C(=O)O)C2)CC1 (single isomer, unassigned) [Compound 61, (1s,3s)-3-[4-[[4-chloro-2-(difluoromethoxy)phenyl]carbamoyl]-4-(5-isopropylpyrazol-1-yl)-1-piperidyl]cyclobutanecarboxylic acid]"
7,48.3,"CC(C)c1ccnn1C1(C(=O)Nc2ccc(Cl)cc2OC(F)F)CCN(C[C@@](C)(C(=O)O)C2CCOCC2)CC1 (single isomer, unassigned) [Compound 78, (2.5)-3-[4-[[4-chloro-2-(difluoromethoxy)phenyl]carbamoyl]-4-(5-isopropylpyrazol-1-yl)-1-piperidyl]-2-methyl-2-tetrahydropyran-4-yl-propanoic acid]"
8,11.7,"CC(C)c1ccnn1C1(C(=O)Nc2ccc(Cl)cc2OC(F)F)CCN(C[C@]2(C(=O)O)CC[C@@H](O)CC2)CC1 (single isomer, unassigned) [Compound 95, (1s,4s)-1-[[4-[[4-chloro-2-(difluoromethoxy)phenyl]carbamoyl]-4-(5-isopropylpyrazol-1-yl)-1-piperidyl]methyl]-4-hydroxy-cyclohexanecarboxylic acid]"
9,15.5,"COC[C@@H](CN1CCC(C(=O)Nc2ccc(Cl)cc2OC(F)F)(n2nccc2C(C)C)CC1)C(=O)O (single isomer, unassigned) [Compound 119]"
10,38.9,"CC(C)c1c(F)cnn1C1(C(=O)Nc2ccc(Cl)cc2OC(F)F)CCN([C@H]2C[C@@H](C(=O)O)C2)CC1 (single isomer, unassigned) [Compound 123, (1s,3s)-3-[4-[[4-chloro-2-(difluoromethoxy)phenyl]carbamoyl]-4-(4-fluoro-S-isopropyl-pyrazol-1-yl)-1-piperidyl]cyclobutanecarboxylic acid]"
11,57.2,"CC(C)c1ccnn1C1(C(=O)Nc2ccc(Cl)cc2OC(F)F)CCN([C@@H]2CO[C@H](C(=O)O)C2)CC1 (single isomer, unassigned) [Compound 137]"
12,132,"CC(C)c1ccnn1C1(C(=O)Nc2ccc(Cl)cc2OC(F)F)CCN([C@H]2CO[C@H](C(=O)O)C2)CC1 (single isomer, unassigned) [Compound 140]"
13,34.5,"CC(C)c1ccnn1C1(C(=O)Nc2ccc(Cl)cc2OC(F)F)CCN(C[C@@H](C(=O)O)[C@H]2CCOC2)CC1 (single isomer, unassigned) [Compound 149]"
